Read-outs that look alike come from different tables or passages of the source.
Experiments:
SMN2 mRNA = experiment: Gene panel canonical junction qPCR assay, SMN2 CJ mRNA decrease; format: cell-based, human; conditions: decrease in CJ mRNA levels, read-out: SMN2 IC50
Method: (§1) Compounds described herein were used to modulate RNA transcript abundance in cells. The expression of a target mRNA was measured by detecting the formation of an exon-exon junction in the canonical transcript (CJ). A compound mediated exon-inclusion event was detected by observing an increase in formation of a new junction with an alternative exon (AJ). Real-time qPCR assays were used to detect these splicing switches and interrogate the potency of various compounds towards different target genes. A high-throughput real time quantitative PCR (RT-qPCR) assay was developed to measure these two isoforms of the mRNA (CJ and AJ) for exemplary genes, such as HTT, SMN2, and MYB, together with a control housekeeping gene, GAPDH or GUSB or PPIA, used for normalization. Briefly, the A673 or K562 cell line was treated with various compounds described herein (e.g., compounds of Formula (I), (I), or (III)). After treatment, the levels of the HTT, MYB, or SMN2 mRNA targets were determined from each sample of cell lysate by cDNA synthesis followed by qPCR.
(§2) The data analysis was performed by first determining the ΔCt vs the housekeeper gene. This ΔCt was then normalized against the DMSO control (ΔΔCt) and converted to RQ (relative quantification) using the 2^(−ΔΔCt) equation. The RQ were then converted to a percentage response by arbitrarily setting an assay window of 3.5 and 4.0 ΔCt for HTT-CJ and MYB-CJ respectively and an assay window of 9 and 3 ΔCt for HTT-AJ and MYB-AJ in 96 well format (50,000 K562 cells/well and 15,000 A673 cells per well) and an assay window of 3 and 4 ΔCt for HTT-CJ and MYB-CJ respectively and an assay window of 5 and 3 ΔCt for HTT-AJ and MYB-AJ respectively in 384 well format (8,000 K562 cells/well example). […] The percentage response was then fitted to the 4 parametric logistic equation to evaluate the concentration dependence of compound treatment. The increase in AJ mRNA is reported as AC50 (compound concentration having […] in AJ increase) while the decrease in CJ mRNA levels is reported as IC50 (compound concentration having 50) response in CJ decrease).
(§3) Additional studies were carried out for a larger panel of genes using the protocol provided above. The junction between flanking upstream and downstream exons was used to design canonical junction qPCR assays. At least one of the forward primer, reverse primer or the CY5-labeled 5′ nuclease probe (with 3′ quencher such as ZEN/Iowa Black FQ) was designed to overlap with the exon junction to capture the CJ mRNA transcript. BLAST was used to confirm the specificity of the probeset and parameters such as melting temperature, GC content, amplicon size, and primer dimer formation are considered during their design. Data for the decrease in CJ mRNA levels for four exemplary genes (HTT, SMN2, MYB, and Target C) analyzed in this panel are reported as IC50 (compound concentration having […] in CJ decrease).
(§4) A summary of the results from the panel is illustrated in Tables 5A and 51B, wherein “A” represents an IC50 of less than 100 nM; “B” represents an IC50 of between 100 nM and 1 μM; and “C” represents an IC50 of between 1 μM and 10 μM; and “D” represents an IC50 of greater than 10 μM.

HTT mRNA = experiment: Gene panel canonical junction qPCR assay, HTT CJ mRNA decrease; format: cell-based, human; conditions: Homo sapiens, decrease in CJ mRNA levels, read-out: HTT IC50
Method: as §1, §2, §3, §4

MYB mRNA = experiment: Gene panel canonical junction qPCR assay, MYB CJ mRNA decrease; format: cell-based, human; conditions: decrease in CJ mRNA levels, read-out: MYB IC50
Method: as §1, §2, §3, §4

Target C mRNA = experiment: Gene panel canonical junction qPCR assay, Target C CJ mRNA decrease; format: cell-based; conditions: Homo sapiens, decrease in CJ mRNA levels, read-out: Target C IC50
Method: as §1, §2, §3, §4

Compound	IC50 (SMN2 mRNA; Homo sapiens) [µM]	IC50 (HTT mRNA) [µM]	IC50 (MYB mRNA; Homo sapiens) [µM]	IC50 (Target C mRNA) [µM]	IC50 (SMN2 mRNA) [µM]	IC50 (MYB mRNA) [µM]
Cc1cn2cc(NC(=O)c3sc(N4CCN(C)C(C)C4)cc3F)cc(F)c2n1 (stereo not shown) [Compound 602]	> 10	> 10	0.1 to 1	> 10		
CCN1CCC(c2cc(F)c(C(=O)Nc3cc(F)c4nc(C)cn4c3)s2)CC1 [Compound 619]	0.1 to 1	0.1 to 1	< 0.1	0.1 to 1		
Cc1nc2c(F)cc(NC(=O)c3sc(N4CCNC(C)C4)cc3F)cc2o1 (stereo not shown) [Compound 637]	> 10	> 10	> 10	> 10		
Cc1cn2cc(NC(=O)c3sc(N4CCNC(C)C4)c(Cl)c3Cl)cc(F)c2n1 (stereo not shown) [Compound 659]	1 to 10	0.1 to 1	0.1 to 1	1 to 10		
Cc1cn2cc(NC(=O)c3sc(N4CC5(CN(C)C5)C4)cc3F)cc(F)c2n1 [Compound 608]	> 10	> 10	1 to 10	> 10		
Cc1cn2cc(NC(=O)c3sc(N4CC5(CNC5)C4)cc3F)cc(F)c2n1 [Compound 607]	> 10	> 10	1 to 10	1 to 10		
Cc1cn2cc(NC(=O)c3sc(N4CCNC(C)(C)C4)cc3F)cc(F)c2n1 [Compound 604]	> 10	> 10	1 to 10	> 10		
Cc1cn2nc(NC(=O)c3sc([C@H]4CCN[C@@H](C)C4)cc3F)cc(C)c2n1 [Compound 577]	1 to 10	0.1 to 1	0.1 to 1	0.1 to 1		
Cc1cn2cc(NC(=O)c3sc(C4CC(C)(C)NC(C)(C)C4)cc3F)cc(F)c2n1 [Compound 621]	1 to 10	0.1 to 1	0.1 to 1	1 to 10		
Cc1cn2cc(NC(=O)c3sc(C4CCNCC4)cc3Cl)cc(F)c2n1 [Compound 663]	> 10	0.1 to 1	0.1 to 1	1 to 10		
Cc1cn2nc(NC(=O)c3sc(N4CCNC(C)C4)cc3F)nc2c(C)n1 (stereo not shown) [Compound 642]	> 10	> 10	0.1 to 1	> 10		
Cc1cn2cc(NC(=O)c3sc([C@@H]4CCN[C@H](C)C4)cc3F)cc(F)c2n1 [Compound 589]	1 to 10	0.1 to 1	< 0.1	1 to 10		
Cc1cn2cc(NC(=O)c3sc(N4CCC(N(C)C)C4)cc3F)cc(F)c2n1 (stereo not shown) [Compound 611]	> 10	> 10	0.1 to 1	1 to 10		
CC1=NC2C(F)=CC(NC(=O)c3sc(C4CCNCC4)cc3F)=CC2S1 (stereo not shown) [Compound 658]	> 10	> 10	> 10	> 10		
Cc1cn2cc(NC(=O)c3ccc(C4CCNCC4)s3)cc(F)c2n1 [Compound 647]	> 10	> 10	1 to 10	> 10		
Cc1cn2cc(NC(=O)c3sc(N4CCNC(C)C4)cc3F)nc2c(C)n1 (stereo not shown) [Compound 641]	> 10	> 10	1 to 10	> 10		
Cc1cn2cc(NC(=O)c3sc([C@@H]4CCN[C@@H](C)C4)cc3F)cc(F)c2n1 [Compound 591]	1 to 10	0.1 to 1	< 0.1	0.1 to 1		

Compound	IC50 (SMN2 mRNA; Homo sapiens) [µM]	IC50 (HTT mRNA) [µM]	IC50 (MYB mRNA; Homo sapiens) [µM]	IC50 (Target C mRNA) [µM]	IC50 (SMN2 mRNA) [µM]	IC50 (MYB mRNA) [µM]
COc1cc(N2CCNCC2=O)sc1C(=O)Nc1cc(F)c2nc(C)cn2c1 [Compound 662]	> 10	> 10	> 10	> 10		
Cc1cn2nc(NC(=O)c3sc([C@H]4CCN[C@H](C)C4)cc3F)cc(C)c2n1 [Compound 578]	1 to 10	0.1 to 1	< 0.1	1 to 10		
Cc1cn2nc(NC(=O)c3sc(C4CCNCC4)cc3F)nc2c(C)n1 [Compound 665]	1 to 10	< 0.1	< 0.1	0.1 to 1		
Cc1cn2cc(NC(=O)c3sc(N4CC(C)(C)NC(C)(C)C4)cc3F)cc(F)c2n1 [Compound 606]	> 10	1 to 10	0.1 to 1	1 to 10		
CC1CC(c2cc(F)c(C(=O)Nc3cc(F)c4cn(C)nc4c3)s2)CCN1 (stereo not shown) [Compound 625]	1 to 10	1 to 10	1 to 10	1 to 10		
Cc1cn2cc(NC(=O)c3sc(N4CCC(N5CCCC5)C4)cc3F)cc(F)c2n1 (stereo not shown) [Compound 609]	1 to 10	1 to 10	0.1 to 1	1 to 10		
Cc1cn2cc(NC(=O)c3sc(N4CCNC(C)C4)cc3F)c(C)cc2n1 (stereo not shown) [Compound 639]	0.1 to 1	1 to 10	0.1 to 1	1 to 10		
Cc1cn2cc(NC(=O)c3sc(C4CCNCC4)c(Cl)c3Cl)cc(F)c2n1 [Compound 648]	> 10	> 10	> 10	> 10		
Cc1cn2cc(NC(=O)c3sc(C4CCNCC4)cc3F)cc(F)c2n1 [Compound 617]		1 to 10		1 to 10	1 to 10	1 to 10
Cc1cn2cc(NC(=O)c3sc(N4CCN5CCCC5C4)cc3F)cc(F)c2n1 (stereo not shown) [Compound 612]	> 10	> 10	1 to 10	1 to 10		
Cc1cn2cc(NC(=O)c3cc(Cl)c(N4CCNC(C)C4)s3)cc(F)c2n1 (stereo not shown) [Compound 660]	1 to 10	0.1 to 1	< 0.1	1 to 10		
CC1=NC2C(F)=CC(NC(=O)c3sc(C4CCNCC4)cc3F)=CC2O1 (stereo not shown) [Compound 657]	> 10	> 10	> 10	> 10		
Cc1cn2cc(NC(=O)c3sc([C@H]4CCN[C@H](C)C4)cc3F)cc(F)c2n1 [Compound 592]	1 to 10	0.1 to 1	0.1 to 1	1 to 10		
CC1CC(c2cc(F)c(C(=O)Nc3ccc4cn(C)nc4c3)s2)CCN1 (stereo not shown) [Compound 624]	> 10	> 10	0.1 to 1	1 to 10		
Cc1cn2cc(NC(=O)c3sc(N4CCNC(C)C4)cc3F)ncc2n1 (stereo not shown) [Compound 640]	0.1 to 1	> 10	0.1 to 1	1 to 10		
Cc1cn2cc(NC(=O)c3sc(N4CCC(NC(C)(C)C)CC4)cc3F)cc(F)c2n1 [Compound 614]	> 10	> 10	1 to 10	> 10		
Cc1cn2cc(NC(=O)c3sc(N(C)C4CC(C)(C)NC(C)(C)C4)cc3F)cc(F)c2n1 [Compound 622]	1 to 10	0.1 to 1	< 0.1	0.1 to 1		

Reference: patent US20240409536A1, “COMPOUNDS AND METHODS FOR MODULATING SPLICING” (REMIX THERAPEUTICS INC., priority 2021, published 2024)
